Calls of active or inactive are those of the source. The rule behind the calls is not given here.
Key:
[1] = Inhibition of CK2
[2] = Inhibition of CK2 expressed in HEK293 cells by SRE-luciferase reporter gene assay; format: cell-based
[3] = Selectivity ratio of IC50 for PKC to CK2
[4] = Selectivity ratio of IC50 for PKA to CK2
[5] = Selectivity ratio of IC50 for p38beta2 to CK2
[6] = Selectivity ratio of IC50 for CAMK2 to CK2
[7] = tested on: Rattus norvegicus; assay: Antinephritic activity in anti-GBM glomerulonephritis Wistar-Kyoto rat model assessed as improved proteinuria at 15 mg/kg, ip qd measured at day 7 by pyrogallol Red method; format: functional, organism-based; design: dose 15 mg/kg
[8] = Selectivity ratio of IC50 for S6 kinase to CK2
[9] = Selectivity ratio of IC50 for ERK to CK2

IC50 [1] [nM]	IC50 [2] [nM]	Compound	other results
2000	–	Cc1cc(O)c2c(c1)C(=O)c1cc(O)cc(O)c1C2=O [EMODIN]	–
500	–	O=C(O)Cc1cn(-c2cncc(-n3ccc4ccccc43)n2)c2ccccc12	–
30	–	O=C(O)Cc1ccn(-c2cncc(-n3ncc4ccccc43)n2)c1	–
16	4000	O=C(O)Cc1ccn(-c2cncc(-n3ncc4ccc(Cl)cc43)n2)c1	–
12	30000	O=C(O)Cc1ccn(-c2cncc(-n3nc(Cl)c4ccccc43)n2)c1	–
3000	–	O=C(O)Cc1cn(-c2cncc(-n3cccc3)n2)c2ccccc12	–
300	–	O=C(O)Cc1cn(-c2cncc(-n3cc(CC(=O)O)c4ccccc43)n2)c2ccccc12	–
50	–	O=C(O)Cc1ccn(-c2cncc(N3CCc4ccccc43)n2)c1	–
80	–	O=C(O)Cc1c2ccccc2n2c1[nH]c(=O)c1ccccc12	–
8	1000	CC(C)Nc1ccc2cnn(-c3cncc(-n4ccc(CC(=O)O)c4)n3)c2c1	–
100	–	O=C(O)Cc1ccn(-c2cncc(-n3ccc4ccccc43)n2)c1	–
25	–	Nc1ccc2cnn(-c3cncc(-n4ccc(CC(=O)O)c4)n3)c2c1	–
8	15000	Nc1nn(-c2cncc(-n3ccc(CC(=O)O)c3)n2)c2ccccc12	–
9.3	900	O=C(O)Cc1ccn(-c2cncc(-n3ncc4ccc(NC5CCCC5)cc43)n2)c1	Ratio IC50 [3]: > 740; Ratio IC50 [4]: > 740; Ratio IC50 [5]: > 740; Ratio IC50 [6]: 162; Activity [7]: Active; Ratio IC50 [8]: 626; Ratio IC50 [9]: > 740
22	11000	N#Cc1ccc2cnn(-c3cncc(-n4ccc(CC(=O)O)c4)n3)c2c1	–
100	–	O=C(O)Cc1ccn(-c2cncc(-n3cnc4ccccc43)n2)c1	–
